From ChEMBL document CHEMBL1201862, “PubChem BioAssay data set” (2004)
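A five-concentration, 48-hour dose response in 96-well plates underlies each endpoint, interpolated linearly between surrounding concentrations. Here, GI50 denotes the concentration required for 50% inhibition of growth.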 Active and inactive are the calls of the source. Cut-off read from the data, not from the text of the source: active = GI50 up to about 1.1 µM and inactive = higher.

Tests used:
Experiment in all cases: NCI-60 cell line screen, 48 h
OVCAR-8 = tested on: OVCAR-8
COLO 205 = tested on: COLO 205
NCI-H522 = tested on: NCI-H522
HL-60 = tested on: HL-60
LOX IMVI = tested on: LOX IMVI
MDA-MB-231 = tested on: MDA-MB-231
CAKI-1 = tested on: CAKI-1
SF-295 = tested on: SF-295
EKVX = tested on: EKVX
SF-268 = tested on: SF-268
IGROV-1 = tested on: IGROV-1
SNB-19 = tested on: SNB-19
RPMI-8226 = tested on: RPMI-8226
NCI-H460 = tested on: NCI-H460
HCT-15 = tested on: HCT-15
A549 = tested on: A549
OVCAR-5 = tested on: OVCAR-5
NCI-H226 = tested on: NCI-H226
SNB-75 = tested on: SNB-75
Malme-3M = tested on: Malme-3M

Compound | GI50 (OVCAR-8) | GI50 (COLO 205) | GI50 (NCI-H522) | GI50 (HL-60) | GI50 (LOX IMVI) | GI50 (MDA-MB-231) | GI50 (CAKI-1) | GI50 (SF-295) | GI50 (EKVX) | GI50 (SF-268) | GI50 (IGROV-1) | GI50 (SNB-19) | GI50 (RPMI-8226) | GI50 (NCI-H460) | GI50 (HCT-15) [µM] | GI50 (A549) | GI50 (OVCAR-5) | GI50 (NCI-H226) | GI50 (SNB-75) | GI50 (Malme-3M)
NC(=O)NNCc1ccccc1 | > 100 µM (inactive) | > 100 µM (inactive) | > 100 µM (inactive) | > 100 µM (inactive) | > 100 µM (inactive) | > 100 µM (inactive) | > 100 µM (inactive) | > 100 µM (inactive) | > 100 µM (inactive) | > 100 µM (inactive) | > 100 µM (inactive) | > 100 µM (inactive) | > 100 µM (inactive) | > 100 µM (inactive) | > 100 | > 100 µM (inactive) | > 100 µM (inactive) | > 100 µM (inactive) | – | –
Brc1cccc(Nc2ncnc3sc4c(c23)CCC(Nc2cccc(Br)c2)C4)c1 (configuration not stated) | > 100 µM (inactive) | > 100 µM (inactive) | > 100 µM (inactive) | – | > 100 µM (inactive) | > 100 µM (inactive) | 79.8 µM (inactive) | > 100 µM (inactive) | > 100 µM (inactive) | > 100 µM (inactive) | 71.3 µM (inactive) | > 100 µM (inactive) | – | > 100 µM (inactive) | > 100 | > 100 µM (inactive) | > 100 µM (inactive) | – | 65.9 µM (inactive) | > 100 µM (inactive)
CCN1C(=O)c2cc(OC)c(OC)cc2C(=O)C12OC(=O)c1cc3c(cc12)OCO3 (configuration not stated) | 48 µM (inactive) | > 100 µM (inactive) | > 100 µM (inactive) | – | 40.7 µM (inactive) | 41.4 µM (inactive) | > 100 µM (inactive) | 68.7 µM (inactive) | > 100 µM (inactive) | 69.7 µM (inactive) | 97.9 µM (inactive) | 39.5 µM (inactive) | 24.1 µM (inactive) | 43.4 µM (inactive) | > 100 | 36.9 µM (inactive) | > 100 µM (inactive) | > 100 µM (inactive) | 23 µM (inactive) | > 100 µM (inactive)
CCOC(=O)/C(=C/c1cn(C(C)=O)c2ccccc12)P(=O)(OC)OC | 46.7 µM (inactive) | > 10 µM (inactive) | 30.5 µM (inactive) | 18 µM (inactive) | 25.3 µM (inactive) | 43.8 µM (inactive) | 31.9 µM (inactive) | 44.4 µM (inactive) | – | – | 25.6 µM (inactive) | – | 19.9 µM (inactive) | 24.4 µM (inactive) | 29.7 | 33.2 µM (inactive) | 40.6 µM (inactive) | – | 16 µM (inactive) | –
O=C(O)/C(=C\c1ccncc1)c1cccc2ccccc12 | > 100 µM (inactive) | > 100 µM (inactive) | > 100 µM (inactive) | > 100 µM (inactive) | > 100 µM (inactive) | > 100 µM (inactive) | – | > 100 µM (inactive) | > 100 µM (inactive) | > 100 µM (inactive) | > 100 µM (inactive) | > 100 µM (inactive) | > 100 µM (inactive) | > 100 µM (inactive) | > 100 | 90.6 µM (inactive) | > 100 µM (inactive) | – | > 100 µM (inactive) | > 100 µM (inactive)
Cc1cc2oc3c(ccc(=O)n3C)c(=O)c2c(C)c1Cl | 76.2 µM (inactive) | 73.5 µM (inactive) | 62.7 µM (inactive) | 37.6 µM (inactive) | 49.9 µM (inactive) | 31.8 µM (inactive) | 67.5 µM (inactive) | 54.8 µM (inactive) | 52 µM (inactive) | 55.5 µM (inactive) | 32.1 µM (inactive) | 71.1 µM (inactive) | – | 61 µM (inactive) | 77.6 | 45 µM (inactive) | 72.9 µM (inactive) | 35.6 µM (inactive) | > 100 µM (inactive) | 57.7 µM (inactive)
CCCn1cc2c3c(cccc31)C1C=C(C)CN(C)C1C2 (configuration not stated) | 29.7 µM (inactive) | 9.98 µM (inactive) | 20.7 µM (inactive) | 1.51 µM (inactive) | 13.6 µM (inactive) | – | 11.8 µM (inactive) | 23.8 µM (inactive) | 18 µM (inactive) | 29 µM (inactive) | 27 µM (inactive) | 27 µM (inactive) | 6.61 µM (inactive) | 12 µM (inactive) | 17.4 | 34.5 µM (inactive) | 25.2 µM (inactive) | 12.8 µM (inactive) | 12 µM (inactive) | 18.7 µM (inactive)
O=c1[nH]nc(Cn2c3ccc(Br)cc3c3nc4ccccc4nc32)n1C1CCCCC1 | 12.8 µM (inactive) | 3.9 µM (inactive) | – | – | < 0.01 µM (active) | > 100 µM (inactive) | > 100 µM (inactive) | 32.7 µM (inactive) | 90.8 µM (inactive) | 40 µM (inactive) | > 100 µM (inactive) | > 100 µM (inactive) | 21.3 µM (inactive) | 29.4 µM (inactive) | > 100 | 43.6 µM (inactive) | 34.2 µM (inactive) | 59.4 µM (inactive) | > 100 µM (inactive) | –
C=CS(=O)(=O)CCN1CC1 | > 10 µM (inactive) | > 10 µM (inactive) | > 10 µM (inactive) | > 10 µM (inactive) | > 10 µM (inactive) | > 10 µM (inactive) | > 10 µM (inactive) | > 10 µM (inactive) | – | > 10 µM (inactive) | > 10 µM (inactive) | – | > 10 µM (inactive) | – | > 10 | > 10 µM (inactive) | > 10 µM (inactive) | – | > 10 µM (inactive) | > 10 µM (inactive)
CC(=O)N(C(C)=O)n1nc2c(n1)C(=O)c1ccccc1C2=O | > 100 µM (inactive) | > 100 µM (inactive) | > 100 µM (inactive) | > 100 µM (inactive) | > 100 µM (inactive) | > 100 µM (inactive) | > 100 µM (inactive) | > 100 µM (inactive) | > 100 µM (inactive) | > 100 µM (inactive) | > 100 µM (inactive) | > 100 µM (inactive) | > 100 µM (inactive) | > 100 µM (inactive) | > 100 | > 100 µM (inactive) | > 100 µM (inactive) | – | – | 68.1 µM (inactive)
COC(=O)/C([Se]c1c(C)cc(C)cc1C)=C(\[Se]c1c(C)cc(C)cc1C)C(=O)OC | > 100 µM (inactive) | > 100 µM (inactive) | > 100 µM (inactive) | > 100 µM (inactive) | > 100 µM (inactive) | – | > 100 µM (inactive) | > 100 µM (inactive) | > 100 µM (inactive) | > 100 µM (inactive) | > 100 µM (inactive) | > 100 µM (inactive) | > 100 µM (inactive) | > 100 µM (inactive) | > 100 | > 100 µM (inactive) | > 100 µM (inactive) | > 100 µM (inactive) | > 100 µM (inactive) | > 100 µM (inactive)
C=C1C(=O)O[C@@H]2[C@H]3O[C@]3(C)CCC=C(C)CC[C@@H]12 | 16.7 µM (inactive) | 14.5 µM (inactive) | 5.47 µM (inactive) | 4.69 µM (inactive) | 8.24 µM (inactive) | – | 9.31 µM (inactive) | 24.8 µM (inactive) | 17.4 µM (inactive) | 23.7 µM (inactive) | 21.1 µM (inactive) | 63.7 µM (inactive) | 8.71 µM (inactive) | 18.8 µM (inactive) | 14.7 | 94.6 µM (inactive) | 34.2 µM (inactive) | 20.5 µM (inactive) | 48.4 µM (inactive) | 13.4 µM (inactive)
C=C(c1ccccc1)C1(O)CCCCC1N (configuration not stated) | > 100 µM (inactive) | > 100 µM (inactive) | > 100 µM (inactive) | 16.6 µM (inactive) | > 100 µM (inactive) | – | > 43.2 µM (inactive) | > 100 µM (inactive) | > 100 µM (inactive) | > 100 µM (inactive) | > 100 µM (inactive) | > 100 µM (inactive) | 50.7 µM (inactive) | > 100 µM (inactive) | > 100 | > 100 µM (inactive) | > 100 µM (inactive) | > 100 µM (inactive) | > 85.7 µM (inactive) | > 100 µM (inactive)
OCc1cn(C(c2ccccc2)(c2ccccc2)c2ccccc2)cn1 | > 100 µM (inactive) | > 100 µM (inactive) | > 100 µM (inactive) | > 100 µM (inactive) | 66.7 µM (inactive) | > 100 µM (inactive) | 91.6 µM (inactive) | 32.3 µM (inactive) | – | – | > 100 µM (inactive) | > 100 µM (inactive) | > 100 µM (inactive) | > 100 µM (inactive) | > 100 | > 100 µM (inactive) | > 100 µM (inactive) | > 100 µM (inactive) | 22.2 µM (inactive) | –
Cc1ccc(S(=O)(=O)N2CCCSCC2)cc1 | > 100 µM (inactive) | > 100 µM (inactive) | > 100 µM (inactive) | – | > 100 µM (inactive) | > 100 µM (inactive) | – | > 100 µM (inactive) | – | > 100 µM (inactive) | – | > 100 µM (inactive) | – | > 100 µM (inactive) | > 100 | > 100 µM (inactive) | – | > 100 µM (inactive) | 61.7 µM (inactive) | –
CCOc1c(/N=N/c2ccccc2Cl)c(-c2ccccc2)nn1C(=S)S | 54 µM (inactive) | 21.4 µM (inactive) | 25.2 µM (inactive) | 33.6 µM (inactive) | 19.9 µM (inactive) | 15.7 µM (inactive) | 18.7 µM (inactive) | 33.6 µM (inactive) | 30.9 µM (inactive) | > 100 µM (inactive) | 42.6 µM (inactive) | > 100 µM (inactive) | – | 45.2 µM (inactive) | 23.1 | 33.2 µM (inactive) | 61 µM (inactive) | 20.8 µM (inactive) | > 100 µM (inactive) | 37.2 µM (inactive)
